We go through 11 compounds from PubChem BioAssay (NCI).

Test systems include SK-MEL-2 melanoma; COLO 205 colon; OVCAR-3 ovarian; OVCAR-4 ovarian; UACC-62 melanoma; U251 CNS; KM12 colon; DMS 114 small cell lung; SW-620 colon; NCI/ADR-RES ovarian.
Common to all, as to test: NCI-60 cell line screen, 48 h

Each structure is given as a SMILES string.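 Briefly, cells in 96-well plates were exposed to five compound concentrations for 48 h, and endpoints were estimated by linear interpolation. GI50 = concentration required for 50% inhibition of growth. At the TGI there is no net growth.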

Consider `CS(=O)(=O)OCc1c(O)c2c(c(O)c1COS(C)(=O)=O)C(=O)C=CC2=O`, for which the TGI in the experiment on SK-MEL-2 melanoma, in the experiment with COLO 205 colon, in the experiment on OVCAR-3 ovarian, in the experiment with OVCAR-4 ovarian, in the experiment on UACC-62 melanoma and with U251 CNS was greater than 100 µM in each case. The TGI with KM12 colon, in the experiment on DMS 114 small cell lung and with SW-620 colon was greater than 100 µM throughout.

With `Cc1ccc(S(=O)(=O)NCCSS(=O)(=O)c2ccc(C)cc2)cc1`, the TGI in the experiment on COLO 205 colon was greater than 100 µM; in the experiment on OVCAR-4 ovarian it was greater than 100 µM; in the experiment on U251 CNS, 53.8 µM; with KM12 colon, 85.8 µM; in the experiment on NCI/ADR-RES ovarian, 72.3 µM; in the experiment on SW-620 colon, 46.5 µM.

In the case of `O=C(/N=C/c1c(O)c2ccccc2oc1=O)NC1CCCCC1`, the TGI in the experiment on SK-MEL-2 melanoma, with COLO 205 colon, in the experiment with OVCAR-4 ovarian, with UACC-62 melanoma, in the experiment on DMS 114 small cell lung and with SW-620 colon was greater than 100 µM each time.

On to `CC(C)Cc1cccc(C(C)C)c1NC(=O)CCC(=O)N/N=C1\C(=N/NC(=O)CCC(=O)Nc2c(C(C)C)cccc2C(C)C)C(c2ccc3c(c2)OCO3)Oc2ccccc21` (stereo unspecified), for which the TGI in the experiment on SK-MEL-2 melanoma, with COLO 205 colon, with OVCAR-4 ovarian, in the experiment on UACC-62 melanoma, in the experiment with U251 CNS and in the experiment on KM12 colon was greater than 100 µM in each case. In addition, the TGI with DMS 114 small cell lung and in the experiment on SW-620 colon was greater than 100 µM in each case.

For `CN(C)CCC(C(=O)C(C)(C)C)c1ccccn1` (stereo unspecified), the TGI with SK-MEL-2 melanoma is greater than 100 µM; with COLO 205 colon it was greater than 100 µM; with OVCAR-3 ovarian it was 93.6 µM; with OVCAR-4 ovarian, greater than 100 µM; with UACC-62 melanoma, greater than 100 µM; in the experiment on U251 CNS it was greater than 100 µM. The TGI with KM12 colon, with NCI/ADR-RES ovarian and with SW-620 colon was greater than 100 µM throughout.

`O=c1cc(-c2nc3ccccc3[nH]2)[nH]c2nc(-c3nc4ccccc4[nH]3)cc(-c3ccc(Cl)cc3)c12`: the TGI with SK-MEL-2 melanoma was determined as 30.5 µM; in the experiment on COLO 205 colon, 24.6 µM; in the experiment with OVCAR-3 ovarian it was 63.4 µM; in the experiment with OVCAR-4 ovarian it was 95.4 µM; with UACC-62 melanoma, 33.2 µM; in the experiment on U251 CNS, 40 µM. Besides, the results for the TGI in the experiment with KM12 colon, in the experiment with NCI/ADR-RES ovarian and in the experiment with SW-620 colon were 64.4 µM, 91.3 µM and 54.1 µM, respectively.

Turning to `ClCC1(CCl)COC1`, the TGI in the experiment with COLO 205 colon, with OVCAR-3 ovarian, in the experiment with OVCAR-4 ovarian, in the experiment on U251 CNS, in the experiment on KM12 colon and in the experiment on NCI/ADR-RES ovarian was greater than 100 µM in each case. Also, the TGI with SW-620 colon is greater than 100 µM.

Regarding `C[C@H](O)C(=O)SC[C@H](NC(=O)CC[C@@H](N)C(=O)O)C(=O)NCC(=O)O`, the TGI with SK-MEL-2 melanoma, in the experiment on COLO 205 colon, in the experiment on OVCAR-3 ovarian, in the experiment on OVCAR-4 ovarian, with UACC-62 melanoma and in the experiment on U251 CNS was greater than 100 µM each time. The TGI with KM12 colon, in the experiment with DMS 114 small cell lung and with SW-620 colon was greater than 100 µM each time.

Take `COc1ccc(-n2cc(-c3ccc(OC)c(OC)c3)nc2SCc2ccccc2)cc1Cl`: the GI50 with SK-MEL-2 melanoma was 16.3 µM; in the experiment with COLO 205 colon, 19 µM; in the experiment with OVCAR-3 ovarian it was 20.6 µM; in the experiment with OVCAR-4 ovarian, 20.1 µM; in the experiment on UACC-62 melanoma it was 20.8 µM; in the experiment on U251 CNS, 22.4 µM. Also, the GI50 in the experiment on KM12 colon is 21.3 µM; in the experiment with NCI/ADR-RES ovarian it was 42.7 µM; in the experiment on SW-620 colon it was 29.9 µM. Further, the TGI in the experiment with SK-MEL-2 melanoma is 56.3 µM; in the experiment on COLO 205 colon, 45.4 µM; in the experiment with OVCAR-3 ovarian, greater than 100 µM; in the experiment on OVCAR-4 ovarian it was greater than 100 µM; in the experiment on UACC-62 melanoma, greater than 100 µM; in the experiment on U251 CNS, greater than 100 µM. Moreover, the values for the TGI in the experiment on KM12 colon, in the experiment with NCI/ADR-RES ovarian and in the experiment on SW-620 colon were 68.1 µM, greater than 100 µM and greater than 100 µM, respectively.

Consider `FC(F)(F)C1=NC(=NNc2nnc(-c3ccccc3)c(-c3ccccc3)n2)N=C(C(F)(F)F)C1`, for which the TGI was greater than 100 µM in the experiment with SK-MEL-2 melanoma; 61.4 µM with COLO 205 colon; greater than 100 µM in the experiment with OVCAR-3 ovarian; greater than 100 µM in the experiment on OVCAR-4 ovarian; 30 µM in the experiment with UACC-62 melanoma; greater than 86.3 µM in the experiment on U251 CNS. Besides, the TGI in the experiment with KM12 colon was greater than 100 µM; with NCI/ADR-RES ovarian, greater than 100 µM; in the experiment with DMS 114 small cell lung it was 28.2 µM; with SW-620 colon, greater than 100 µM.

Regarding `C=C1C(=O)OC2/C=C(\C)CC(O)/C=C(/CO)CC(OC(=O)/C(C)=C/C)C12` (stereo unspecified), the TGI with SK-MEL-2 melanoma was 344 µM; with COLO 205 colon, 96.8 µM; in the experiment with OVCAR-3 ovarian, 122 µM; in the experiment with OVCAR-4 ovarian, 319 µM; with UACC-62 melanoma, 274 µM; in the experiment with U251 CNS, 303 µM. The TGI in the experiment on KM12 colon was 229 µM; in the experiment with NCI/ADR-RES ovarian it was 538 µM; in the experiment with DMS 114 small cell lung it was 30.5 µM; in the experiment with SW-620 colon, 50.3 µM.
